What all share (type): in vivo
Test [1] has as its system Annual bluegrass. The experiment in a line: Pre-emergence herbicide test. Particulars: 1.12 kg/ha, read-out: % plant inhibition (Anbg). In short, it runs like this: (§1)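 Percent growth inhibition rated roughly 11 days (range 10–14) after treatment, with pans held on a greenhouse bench and watered from below. Compound in acetone or water was sprayed onto the seed bed before covering with a layer of untreated topsoil.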

Test [2] concerns Barnyardgrass. The test can be described thus: Pre-emergence herbicide test. The settings on record: Echinochloa crus-galli, 1.12 kg/ha, read-out: % plant inhibition (Bygr). In short, it runs like this: as §1
For test [3], the system named is Cocklebur. The test can be described thus: Pre-emergence herbicide test. Particulars: Xanthium strumarium, 1.12 kg/ha, read-out: % plant inhibition (Cobu). In short, it runs like this:
as §1

Test [4] has as its system Downy Brome. The experiment in a line: Pre-emergence herbicide test. Particulars: Bromus tectorum, 1.12 kg/ha, read-out: % plant inhibition (Dobr). In short, it runs like this: as §1
Test [5] has as its system Indian Mustard. The experiment in a line: Pre-emergence herbicide test. Particulars: Brassica juncea, 1.12 kg/ha, read-out: % plant inhibition (Inmu). In short, it runs like this: as §1
Test [6] deals with Morningglory. The test can be described thus: Pre-emergence herbicide test. Particulars: Ipomoea, 1.12 kg/ha, read-out: % plant inhibition (Mogl). In short, it runs like this:
as §1

Test [7] relates to Seedling johnsongrass. The test can be described thus: Pre-emergence herbicide test. The settings on record: Sorghum halepense, 1.12 kg/ha, read-out: % plant inhibition (Sejg). In short, it runs like this: as §1
The test system of test [8] is Velvetleaf. The experiment in a line: Pre-emergence herbicide test. Particulars: Abutilon theophrasti, 1.12 kg/ha, read-out: % plant inhibition (Vele). In short, it runs like this:
as §1

Test [9] concerns Wild buckwheat. The test can be described thus: Pre-emergence herbicide test. Particulars: Fallopia convolvulus, 1.12 kg/ha, read-out: % plant inhibition (Wibw). In short, it runs like this:
as §1

The test system of test [10] is Yellow nutsedge. The experiment in a line: Pre-emergence herbicide test. The settings on record: Cyperus, 1.12 kg/ha, read-out: % plant inhibition (Yens). In short, it runs like this:
as §1

Test [11] relates to Annual bluegrass. The test can be described thus: Post-emergence herbicide test. The settings on record: 1.12 kg/ha, read-out: % plant inhibition (Anbg). In short, it runs like this: (§2)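 Pot-grown plants two to three weeks old sprayed at 170.3 kPa with test compound in ~0.4% emulsifier, 1870 L/Ha spray volume. Percent inhibition versus control scored about 11 days after spraying, sometimes again at about 25 days.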

For test [12], the system named is Barnyardgrass. The test can be described thus: Post-emergence herbicide test. The settings on record: Echinochloa crus-galli, 1.12 kg/ha, read-out: % plant inhibition (Bygr). In short, it runs like this: as §2
Test [13] concerns Cocklebur. The test can be described thus: Post-emergence herbicide test. Particulars: Xanthium strumarium, 1.12 kg/ha, read-out: % plant inhibition (Cobu). In short, it runs like this:
as §2

Test [14] relates to Downy Brome. The experiment in a line: Post-emergence herbicide test. The settings on record: Bromus tectorum, 1.12 kg/ha, read-out: % plant inhibition (Dobr). In short, it runs like this: as §2
Test [15] relates to Indian Mustard. The test can be described thus: Post-emergence herbicide test. The settings on record: Brassica juncea, 1.12 kg/ha, read-out: % plant inhibition (Inmu). In short, it runs like this: as §2
The subject of test [16] is Morningglory. The test can be described thus: Post-emergence herbicide test. The settings on record: Ipomoea, 1.12 kg/ha, read-out: % plant inhibition (Mogl). In short, it runs like this: as §2
Test [17] relates to Seedling johnsongrass. The test can be described thus: Post-emergence herbicide test. Particulars: Sorghum halepense, 1.12 kg/ha, read-out: % plant inhibition (Sejg). In short, it runs like this:
as §2

The subject of test [18] is Velvetleaf. The experiment in a line: Post-emergence herbicide test. Particulars: Abutilon theophrasti, 1.12 kg/ha, read-out: % plant inhibition (Vele). In short, it runs like this:
as §2

Test [19] has as its system Wild buckwheat. The experiment in a line: Post-emergence herbicide test. Particulars: Fallopia convolvulus, 1.12 kg/ha, read-out: % plant inhibition (Wibw). In short, it runs like this:
as §2

The subject of test [20] is Yellow nutsedge. The test can be described thus: Post-emergence herbicide test. The settings on record: Cyperus, 1.12 kg/ha, read-out: % plant inhibition (Yens). In short, it runs like this: as §2
For test [21], the system named is resistant broadleaf weeds such as pigweed, cocklebur, velvetleaf and hemp sesbania. The experiment in a line: Control of resistant broadleaf weeds in crops. The settings on record: in various crops such as corn, soybean and nuts and in forestry.

By inhibition is commonly meant the relative decrease from the control value, in per cent.

On to `CC(C)OC(=O)c1cc(-c2nn(C)c(C(F)(F)F)c2Cl)c(F)cc1Cl` [Compound 135, 2-chloro-5-[4-chloro-1-methyl-5-(trifluoromethyl)-1H-pyrazol-3-yl]-4-fluorobenzoic acid, 1-methylethyl ester], for which the inhibition at 1120 g/ha turned out to be 100% with Annual bluegrass [1]; 100% with Barnyardgrass [2]; 90% with Cocklebur [3]; 100% in the test on Downy Brome [4]; 100% in the test on Indian Mustard [5]; 90% in the test on Morningglory [6]. Further, the inhibition at 1120 g/ha with Seedling johnsongrass [7] came to 100%; in the test on Velvetleaf [8], 100%; with Wild buckwheat [9] it was 100%; in the test with Yellow nutsedge [10] it was 0%; in the test on Annual bluegrass [11], 100%; in the test on Barnyardgrass [12] it was 100%. Besides, the inhibition at 1120 g/ha in the test with Cocklebur [13], in the test on Downy Brome [14], with Indian Mustard [15], in the test with Morningglory [16], in the test on Seedling johnsongrass [17] and in the test on Velvetleaf [18] was 100% in each case. In addition, the inhibition at 1120 g/ha amounted to 100% with Wild buckwheat [19] and 20% in the test with Yellow nutsedge [20]. For the same compound, the “control of resistant broadleaf weeds” value in test [21] is on record as “outstanding control”.

Consider `CC(C)COC(=O)c1cc(-c2nn(C)c(C(F)(F)F)c2Cl)c(F)cc1Cl` [Compound 139], for which the inhibition at 1120 g/ha was 20% with Annual bluegrass [1]; 30% with Barnyardgrass [2]; 70% with Cocklebur [3]; 80% with Downy Brome [4]; 90% with Indian Mustard [5]; 70% with Morningglory [6]. The inhibition at 1120 g/ha worked out at 40% with Seedling johnsongrass [7]; 100% in the test with Velvetleaf [8]; 90% with Wild buckwheat [9]; 20% in the test with Yellow nutsedge [10]; 90% in the test on Annual bluegrass [11]; 100% in the test on Barnyardgrass [12]. Moreover, the inhibition at 1120 g/ha was 90% in the test on Cocklebur [13]; 100% in the test on Downy Brome [14]; 100% in the test with Indian Mustard [15]; 100% in the test with Morningglory [16]; 100% in the test with Seedling johnsongrass [17]; 100% in the test with Velvetleaf [18]. Further, the inhibition at 1120 g/ha in the test with Wild buckwheat [19] came to 100%; with Yellow nutsedge [20], 10%.

Turning to `CCOC(=O)CON=C(C)c1cc(-c2nn(C)c(C(F)(F)F)c2Cl)c(F)cc1Cl` [Compound 104], the inhibition at 1120 g/ha in the test with Annual bluegrass [1] turned out to be 20%; with Barnyardgrass [2], 10%; with Cocklebur [3], 20%; in the test on Downy Brome [4] it was 80%; with Indian Mustard [5] it was 80%; in the test with Morningglory [6], 80%. Besides, the inhibition at 1120 g/ha came to 80% with Seedling johnsongrass [7]; 90% with Velvetleaf [8]; 70% in the test on Wild buckwheat [9]; 0% with Yellow nutsedge [10]; 30% with Annual bluegrass [11]; 50% in the test with Barnyardgrass [12]. Also, the inhibition at 1120 g/ha in the test with Cocklebur [13] was 70%; with Downy Brome [14], 40%; in the test on Indian Mustard [15], 40%; in the test on Morningglory [16], 100%; with Seedling johnsongrass [17] it was 80%; with Velvetleaf [18], 100%. Also, the inhibition at 1120 g/ha is 100% in the test on Wild buckwheat [19] and 20% in the test on Yellow nutsedge [20].

(Values after patent US5530126A, “Process for the preparation of substituted 6-(pyrazol-3yl)-1,4-benzoxazin-3-ones” (Monsanto Company, priority 1994, dated 1996).)
